Where “and” joins values, the source holds several entries; their conditions need not be identical. Identical values can stand only once. Calls of active or inactive are those of the source.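 Rule for the calls: active = compounds whose fitted half-maximal concentration for changing the GFP signal is at or below a set limit; inactive = the rest.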
Test system: not listed separately
Test: TOR pathway RPL19A-GFP modulators, concentration series – cell-based, S. cerevisiae, flow cytometry, MLPCN hits, dose response (AID 2740);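 for GFP fluorescence, lower = active: background is signal of the same compound in parental non-GFP s288c yeast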
Details: S. cerevisiae RPL19A-GFP strain, flow cytometry fluorescence, 3 h; at 33 µM (top of the series)

SMILES	GFP fluorescence, lower = active (kMESF (background-subtracted))
O=C(OCC(=O)N1CCN(C(=O)c2ccco2)CC1)c1cc(-c2ccc(F)cc2)nc2ccccc12	32.3 (inactive)

Test system: S. cerevisiae RPL19A-GFP strain, flow cytometry fluorescence, 3 h
Test: as above
Details: not given

SMILES	EC50
CNC(CC(=O)c1ccc([N+](=O)[O-])cc1)C(Cl)(Cl)Cl (stereo unspecified)	6.58 µM
CCOC(=O)/C(=C\c1cn(C)c2ccccc12)[N+](=O)[O-]	4.95 µM
CCN1/C(=C/C(C)=C/c2sc3ccccc3[n+]2CC)Sc2ccccc21	11.3 µM
CCOC(=O)c1cc(-c2ccc(/C=C3/C(=O)NC(=O)C(C#N)=C3C)o2)ccc1Cl	3.35 µM
O=c1cc(CSc2ccc(Cl)cc2)nc(-c2ccccn2)[nH]1	12.9 µM
C#CCOCCOCCOCCNc1nc(N2CCN(C(=O)CCCCCCCCCCNC(=O)[C@H](CCCCN)n3cc(CCO)nn3)CC2)nc(N2CCN(C(=O)CCCCCCCCCCNC(=O)[C@H](CCCCN)n3cc(C[C@@H](C)CC)nn3)CC2)n1	10.1 µM
CCOC(=O)COc1ccc2ccccc2c1/C=C/[N+](=O)[O-]	5.36 µM
O=[N+]([O-])c1cc(S(=O)(=O)C(F)(F)F)ccc1Sc1nc2ccccc2s1	14.4 µM
CNc1nc(N)c([N+](=O)[O-])c(Nc2cccc(F)c2)n1	7.46 µM
O=C1C=C(c2ccccc2)C(=O)N1Nc1ccccc1	3.91 µM
CC(C)(C)C(=O)C(Cl)C(=O)Nc1ccccc1 (stereo unspecified)	11.2 µM
Cc1cccc(C)c1NC(=O)C(Cl)C(=O)c1ccccc1 (stereo unspecified)	1.9 µM
O=C(Nc1ccccc1)c1nnsc1S(=O)(=O)c1ccc(Cl)cc1	2.5 µM
C[C@@H]1C[C@@H]([C@H](O)CC2CC(=O)NC(=O)C2)C(=O)[C@@H](C)C1	0.644 µM
Cn1ncc(S(=O)(=O)Cc2ccccc2)c(Cl)c1=O	14.9 µM
CC(=O)Nc1ncnc2c1c(-c1ccc(Cl)cc1)nn2C(C)(C)C	6.07 µM
Cc1nn2c(-c3ccncc3)nnc2c2ccccc12	3.29 µM
CC1=NNC(=O)/C1=C\c1cn(-c2ccccc2)nc1-c1ccccc1	11.4 µM
Cc1ccc(/C=C2\C(=O)NC(=S)N(c3ccccc3F)C2=O)s1	1.36 µM
CC(C)(C)n1nc(-c2ccc(F)cc2)c2c(N)ncnc21	0.98 µM
O=C(C#Cc1ccccc1)c1cccc([N+](=O)[O-])c1	7.47 µM
CCOC(=O)C(C(=O)OCC)C(C(=O)OCC)N1CCOCC1 (stereo unspecified)	14.2 µM
Cc1ccc(NC(=O)c2cc(N3C(=O)C=CC3=O)ccc2N2CCOCC2)cc1Cl	4.02 µM
O=C(Nc1ccc(Cl)cc1)ON=C1CCCC1	10.8 µM
Nc1ccc(Br)c2c1C(=O)c1ccccc1C2=O	3.16 µM
CCOC(=O)c1c(C)oc2c1c(C(c1ccncc1)N1CCOCC1)c(O)c1ccccc12 (stereo unspecified)	11.8 µM
O=C(C#Cc1ccccc1)c1ccco1	25.6 µM

SMILES	EC50
O=C1C2C3C=CC(CO)(O3)C2C(=O)N1c1ccc(-c2ccccc2)cc1 (stereo unspecified)	10.2 µM
O=[N+]([O-])c1ccc(O)c(/C=N/Nc2ccccn2)c1	16.6 µM
CC(Oc1ccc(Cl)cc1)C(=O)NNC(=S)NC(=O)c1ccco1 (stereo unspecified)	11 µM
CCc1nc2ccccc2c(=O)n1NC(=O)c1c(O)c2ccccc2n(CC)c1=O	7.44 µM
COc1ccc([N+](=O)[O-])c(S(=O)(=O)c2ccc(Cl)cc2)n1	13.1 µM
CC(C)(C)C(=O)NC(=S)NNC(=O)c1sc2ccccc2c1Cl	12.3 µM
Cc1ccc(S(=O)(=O)ON2C(=O)c3ccccc3C2=O)c(C)c1	14 µM
O=C1C=CC(=O)N1c1ccc(O)cc1	12.6 µM
O=[N+]([O-])c1cc(Cl)cc(/C=N\Nc2ccccn2)c1O	8.02 µM
CC1(C)C[C@H]2C=C(C=O)[C@]3(C=O)C[C@]3(C)[C@H]2C1	3.62 µM
O=C1C=CC(=O)N1c1ccc(N2CCCCC2)cc1	5.05 µM
COc1ccc(N2C(=O)/C(=C/c3cccs3)C(=O)NC2=S)cc1	7.77 µM
O=[N+]([O-])c1cc(Cl)c2cccnc2c1O	13 µM
O=C1NC(=O)N(Cc2ccco2)C(=O)/C1=C/c1ccc(-c2cccc([N+](=O)[O-])c2)o1	11.2 µM
O=C1Oc2ccccc2C(=O)/C1=C/c1ccccc1O	11 µM
COc1cccc2sc(Nc3nc(-c4ccccn4)cs3)nc12	3.82 µM
Cc1ccc(NN2C(=O)C=C(c3ccc(Cl)cc3)C2=O)cc1	1.28 µM
COc1ccc2c(c1)S/C(=C\C(=O)c1ccncc1)N2C	3.97 µM
CCOc1ccc(N/N=C(/C#N)C(N)=O)cc1	4.55 µM
CCc1ccc2c(c1)/C(=C/C(=O)c1cccs1)C(=O)N2	4.42 µM
O=C(/C=C/c1cccc([N+](=O)[O-])c1)c1ccc([N+](=O)[O-])o1	3.5 µM
CC1=NNC(=O)/C1=C\c1cn(-c2ccccc2)nc1-c1cccs1	3.14 µM
O=C(/C=C/c1ccccn1)c1ccc(Br)cc1O	26.8 µM
C#CCOCCOCCOCCNc1nc(N2CCN(C(=O)CCCCCCCCCCNC(=O)[C@H](CCCCN)n3cc(C)nn3)CC2)nc(N2CCN(C(=O)CCCCCCCCCCNC(=O)[C@H](CCCN=C(N)N)n3cc(C[C@@H](C)CC)nn3)CC2)n1	10.7 µM
COc1ccc(N/N=C(\C#N)C(N)=O)cc1	2.96 µM
COc1cccc2cc(-c3nc4ccccc4o3)c(=O)oc12	1.11 µM
O=C(Nc1nc(-c2ccccn2)cs1)c1cc2ccccc2o1	11.7 µM

SMILES	EC50
Cc1ccc(/C=C2/C(=O)ON=C2c2ccccc2)o1	11.9 µM
CC(=O)SC(C[N+](=O)[O-])c1cn(C(C)=O)c2ccccc12 (stereo unspecified)	12.4 µM
CCCCCCCCn1sccc1=O	11.9 µM
O=C1c2sc3nc4ccccc4n3c2C(=O)N1c1ccccc1Cl	19 µM
COc1ccc2c(c1)c1nnc(SC)nc1n2C	0.681 µM
Cc1ccc(/C=C/C(=O)c2ccccc(=O)c2O)c(C)c1	11.3 µM
Cc1ccc2nc(Cl)c3nnnn3c2c1	5.33 µM
CCCCS(=O)(=O)/C=C\C=C/S(=O)(=O)CCCC	12.5 µM
Cc1ccc(C(=O)O)cc1N=Cc1cc(Br)cc(Br)c1O	11.8 µM
CCn1c(=O)c(C(=O)Nc2nc3ccccc3[nH]2)c(O)c2ccccc21	3.3 µM
CCOC(=O)c1c(C)oc2c1c(C(c1cccnc1)N1CCOCC1)c(O)c1ccccc12 (stereo unspecified)	13.7 µM
CCOc1ccc(N2C(=O)/C(=C\c3cccs3)C(=O)NC2=S)cc1	5.66 µM
N/C(Cc1ccc(Cl)cc1Cl)=N\OC(=O)c1cccs1	12.9 µM
O=C(OCC(=O)N1CCN(C(=O)c2ccco2)CC1)c1cc(-c2cccc(Br)c2)nc2ccccc12	3.18 µM
Cc1ccc(S(=O)(=O)c2ccc([N+](=O)[O-])cn2)cc1	12.9 µM
CSc1nnc2c3cc(F)ccc3n(C)c2n1	1.19 µM
O=C(OCC(=O)N1CCN(C(=O)c2ccco2)CC1)c1cc(-c2ccccc2)nc2ccccc12	6.98 µM and 3.89 µM
O=C1NC(=O)C(=Cc2ccc(-c3ccc(Cl)cc3)o2)C(=O)N1	6.81 µM
Cn1ncc2c(O/N=C(\N)c3ccc(C(C)(C)C)cc3)ncnc21	13 µM
CC(C)(C)c1ccc(NC(=O)COC(=O)c2ccc([N+](=O)[O-])s2)cc1	9.71 µM
N/C(Cc1ccc(Cl)cc1)=N\OC(=O)c1ccccc1	8.02 µM
Cc1ccc(N/N=C(\C#N)C(N)=S)c(C)c1	5 µM
COc1cc(/C=C/[N+](=O)[O-])ccc1O	32.1 µM
C/C(=N\NC(=O)c1cccc(Br)c1)c1ccccn1	20.8 µM
O=C(OCC(=O)N1CCN(C(=O)c2ccco2)CC1)c1cc(-c2ccc(F)cc2)nc2ccccc12	5.05 µM
C[C@H]1C[C@@H](C)C(=O)[C@@H]([C@H](O)CC2CC(=O)NC(=O)C2)C1	0.57 µM
